Data published in US20240092835A1, “NOVEL PEPTIDES CAPABLE OF ALTERING NK CELL ACTIVITY” (Massachusetts Institute of Technology, priority 2022, published 2024).

Assays:
[1] = biological target: T1, HLA-E (Homo sapiens, UniProt P13747); assay: HLA-E surface stabilization assay with RMA-S/HLA-E cells; type: cell-based; conditions: 30 μM peptide, 16 hours, anti-HLA-E antibody
T1 construct: expressed in transfected cells; host or cells: RMA-S/HLA-E cells (antigen processing-defective lymphoma cell line)
Method: HLA-E surface expression was assessed by measuring geometric mean fluorescence intensity (GeoMFI) in RMA-S cells following immunofluorescence staining with an anti-HLA-E antibody (Table 14). Increased GeoMFI was indicative of increased HLA-E surface expression stability following novel peptide exposures (FIG. 3).

[2] = system: NKG2A−/NKG2C− NK cells; assay: NK cell activation markers in control NKG2A-/NKG2C- NK cells incubated with peptide and K562 expressing HLA-E; type: cell-based, human
How it was run: (§1)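 Human myelogenous leukemia K562 cells displaying HLA-E carry the test peptides (human or HCMV origin) and are presented to NK cells; surface activation markers are scored by percent positive cells.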

[3] = system: NKG2A−/NKG2C+ NK cells; assay: NK cell activation markers in NKG2A-/NKG2C+ NK cells incubated with peptide and K562 expressing HLA-E (activation); type: cell-based, human; conditions: for effect on NKG2A−/NKG2C+ NK cell activation (in words): K562 expressing HLA-E, CD107a, IFNG, TNF, CCL3; for percentage of CCL3+ NK cells / percentage of CD107+ NK cells / percentage of IFNG+ NK cells / percentage of TNF+ NK cells: NKG2A-/NKG2C+ NK cells, K562/HLA-E
How it was run: as §1

[4] = system: NKG2A+/NKG2C− NK cells; assay: NK cell activation markers in NKG2A+/NKG2C- NK cells incubated with peptide and K562 expressing HLA-E (inhibition); type: cell-based, human; conditions: for percentage of CCL3+ NK cells / percentage of CD107a+ NK cells / percentage of IFNG+ NK cells / percentage of TNF+ NK cells: NKG2A+/NKG2C- NK cells, K562/HLA-E
How it was run: as §1

T1 sequence (P13747 22-358): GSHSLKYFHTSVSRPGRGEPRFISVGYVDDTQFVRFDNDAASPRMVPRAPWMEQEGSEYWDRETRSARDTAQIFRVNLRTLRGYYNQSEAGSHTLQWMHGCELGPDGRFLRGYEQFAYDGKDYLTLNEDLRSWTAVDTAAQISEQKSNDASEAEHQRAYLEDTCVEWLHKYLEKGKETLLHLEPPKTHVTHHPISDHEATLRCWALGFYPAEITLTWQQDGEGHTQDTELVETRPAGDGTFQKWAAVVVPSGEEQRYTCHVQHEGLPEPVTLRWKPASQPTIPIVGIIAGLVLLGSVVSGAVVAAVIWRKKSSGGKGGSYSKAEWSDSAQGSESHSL
T1 sequence (P61769 21-119 partner): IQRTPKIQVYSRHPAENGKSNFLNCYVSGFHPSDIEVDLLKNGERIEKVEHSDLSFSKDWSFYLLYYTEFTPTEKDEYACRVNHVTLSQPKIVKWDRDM

For “VMPPRTLLL [human15, peptide HLA-A 3-11 derived from the human proteome]”, the “HLA-E surface expression stability (GeoMFI)” value ([1]; Trial 1) was 3783 GeoMFI, the “HLA-E surface expression stability (GeoMFI)” value ([1]; Trial 2) was 4068 GeoMFI and the “HLA-E surface expression stability (GeoMFI)” value ([1]; Trial 3) was 4205 GeoMFI. For the same sequence, the “HLA-E surface expression stability (GeoMFI)” value ([1]; Trial 4) was 4760 GeoMFI, the “percentage CCL3+ NK cells” value ([2]; Trial 1) was 34% and the “percentage CD107+ NK cells” value ([2]; Trial 1) was 25.7%. The “percentage TNF+ NK cells” value ([2]; Trial 1) was 3.42%, the “percentage of IFNG+ NK cells” value ([2]; Trial 1) was 15.5% and the “percentage CCL3+ NK cells” value ([2]; Trial 2) was 55.5%. For the same sequence, the “percentage CD107+ NK cells” value ([2]; Trial 2) was 34.1%, the “percentage TNF+ NK cells” value ([2]; Trial 2) was 9.68% and the “percentage of IFNG+ NK cells” value ([2]; Trial 2) was 25.4%. The “percentage CCL3+ NK cells” value ([2]; Trial 3) was 46.7%, the “percentage CD107+ NK cells” value ([2]; Trial 3) was 43.7% and the “percentage TNF+ NK cells” value ([2]; Trial 3) was 14.8%. The “percentage of IFNG+ NK cells” value ([2]; Trial 3) was 34.7%, the “percentage CCL3+ NK cells” value ([2]; Trial 4) was 34.3% and the “percentage CD107+ NK cells” value ([2]; Trial 4) was 29.6%. For the same sequence, the “percentage TNF+ NK cells” value ([2]; Trial 4) was 10.3%, the “percentage of IFNG+ NK cells” value ([2]; Trial 4) was 20.3% and the “percentage CCL3+ NK cells” value ([2]; Trial 5) was 24.7%. For the same sequence, the “percentage CD107+ NK cells” value ([2]; Trial 5) was 18.9%, the “percentage TNF+ NK cells” value ([2]; Trial 5) was 6.97% and the “percentage of IFNG+ NK cells” value ([2]; Trial 5) was 14.7%. For the same sequence, the “percentage CCL3+ NK cells” value ([2]; Trial 6) was 26.4%, the “percentage CD107+ NK cells” value ([2]; Trial 6) was 21.1% and the “percentage TNF+ NK cells” value ([2]; Trial 6) was 5.43%. The “percentage of IFNG+ NK cells” value ([2]; Trial 6) was 11.9%, the “effect on NKG2A−/NKG2C+ NK cell activation (in words)” value ([3]; listed as SEQ ID NO. 14) was “strong activating effects” and the “effect on NKG2A−/NKG2C+ NK cell activation (in words)” value ([3]; listed as h15) was “strong inhibitory and activating effects”. For the same sequence, the “percentage of CCL3+ NK cells” value ([3]; Trial 1) was 79.5%, the “percentage of CD107+ NK cells” value ([3]; Trial 1) was 78.4% and the “percentage of IFNG+ NK cells” value ([3]; Trial 1) was 66.7%. For the same sequence, the “percentage of TNF+ NK cells” value ([3]; Trial 1) was 52.1%, the “percentage of CCL3+ NK cells” value ([3]; Trial 2) was 89.7% and the “percentage of CD107+ NK cells” value ([3]; Trial 2) was 86%. The “percentage of IFNG+ NK cells” value ([3]; Trial 2) was 79.9%, the “percentage of TNF+ NK cells” value ([3]; Trial 2) was 71.8% and the “percentage of CCL3+ NK cells” value ([3]; Trial 3) was 86.8%. The “percentage of CD107+ NK cells” value ([3]; Trial 3) was 88.2%, the “percentage of IFNG+ NK cells” value ([3]; Trial 3) was 78.8% and the “percentage of TNF+ NK cells” value ([3]; Trial 3) was 68.2%. For the same sequence, the “percentage of CCL3+ NK cells” value ([3]; Trial 4) was 69%, the “percentage of CD107+ NK cells” value ([3]; Trial 4) was 68.9% and the “percentage of IFNG+ NK cells” value ([3]; Trial 4) was 60.9%. For the same sequence, the “percentage of TNF+ NK cells” value ([3]; Trial 4) was 52.6%, the “percentage of CCL3+ NK cells” value ([3]; Trial 5) was 78.9% and the “percentage of CD107+ NK cells” value ([3]; Trial 5) was 78%. The “percentage of IFNG+ NK cells” value ([3]; Trial 5) was 71.9%, the “percentage of TNF+ NK cells” value ([3]; Trial 5) was 66.6% and the “percentage of CCL3+ NK cells” value ([3]; Trial 6) was 58.4%. The “percentage of CD107+ NK cells” value ([3]; Trial 6) was 56.2%, the “percentage of IFNG+ NK cells” value ([3]; Trial 6) was 44.1% and the “percentage of TNF+ NK cells” value ([3]; Trial 6) was 36.3%. The “effect on NKG2A+/NKG2C− NK cell inhibition (in words)” value ([4]; K562 expressing HLA-E, CD107a, IFNG, TNF, CCL3) was “strong inhibitory”, the “percentage of CCL3+ NK cells” value ([4]; Trial 1) was 1.79% and the “percentage of CD107a+ NK cells” value ([4]; Trial 1) was 0.49%. For the same sequence, the “percentage of IFNG+ NK cells” value ([4]; Trial 1) was 0.05%, the “percentage of TNF+ NK cells” value ([4]; Trial 1) was 0.01% and the “percentage of CCL3+ NK cells” value ([4]; Trial 2) was 1.6%. The “percentage of CD107a+ NK cells” value ([4]; Trial 2) was 0.79%, the “percentage of IFNG+ NK cells” value ([4]; Trial 2) was 0.3% and the “percentage of TNF+ NK cells” value ([4]; Trial 2) was 0.27%. For the same sequence, the “percentage of CCL3+ NK cells” value ([4]; Trial 3) was 1.12%, the “percentage of CD107a+ NK cells” value ([4]; Trial 3) was 0.73% and the “percentage of IFNG+ NK cells” value ([4]; Trial 3) was 0.44%. For the same sequence, the “percentage of TNF+ NK cells” value ([4]; Trial 3) was 0.19%, the “percentage of CCL3+ NK cells” value ([4]; Trial 4) was 0.75% and the “percentage of CD107a+ NK cells” value ([4]; Trial 4) was 0.75%. The “percentage of IFNG+ NK cells” value ([4]; Trial 4) was 0.2%, the “percentage of TNF+ NK cells” value ([4]; Trial 4) was 0.18% and the “percentage of CCL3+ NK cells” value ([4]; Trial 5) was 3.7%. The “percentage of CD107a+ NK cells” value ([4]; Trial 5) was 1.04%, the “percentage of IFNG+ NK cells” value ([4]; Trial 5) was 0.19% and the “percentage of TNF+ NK cells” value ([4]; Trial 5) was 0.16%. For the same sequence, the “percentage of CCL3+ NK cells” value ([4]; Trial 6) was 2.09%, the “percentage of CD107a+ NK cells” value ([4]; Trial 6) was 0.52% and the “percentage of IFNG+ NK cells” value ([4]; Trial 6) was 0.24%. The “percentage of TNF+ NK cells” value ([4]; Trial 6) was 0.05%.
